These results are taken from US4795639A, “Potentiating formulations” (priority 1971, dated 1989).

For assay [1], the target named is T1, hydroxymethyldihydropteridine pyrophosphokinase (HMPPS) (Escherichia coli, UniProt P26281).
T1 construct: obtained from an extract of E. coli; endogenous in cells; host or cells: E. coli extract; HMPPS separated from synthetase on Sephadex G-100 (method of Richey and Brown 1969)
As to the kind of experiment: HMPPS assay: transfer of terminal phosphate of ATP-γ-P^32 to Pt. In kind it is biochemical, E. coli. To be noted: read-out: IC50. From the text: (a) An assay for HMPPS was developed in which the transfer of the terminal phosphate of ATP-γ-P^32 to Pt could be monitored and correlated with the amount of inhibition of HMPPS by the compound under test.
The compound under test was incorporated into various formulations comprising metabolites and enzymes contained in test tubes, as indicated in TABLE 1.
II--a source of HMMP S, obtained from an extract of E. coli and separated from `synthetase` on Sephadex G-100, according to the method of Richey and Brown in J. Biol. Chem. 244, 1582-1592 (1969)
Control tubes 10 to 12 include a source of both HMPPS and synthetase, unlabelled ATP, 0.1M MgCl2.6H2 O and labelled pAB.
Tubes 1 to 9 containing the amounts of components shown in the Table, were filled up to 200 μl with distilled water, incubated for 60 minutes at 37° C. and then chilled on ice. Dextrose (20 μl containing 72.1 mg/ml) and hexokinase (5 μl containing 2000 units/ml) were added to the solution, which was then allowed to stand at room temperature for 15 minutes. `Darco-G-60` (Registered Trade Mark) (10 mg) was added to each tube and the contents mixed periodically for 10 minutes. The charcoal was removed through a "Millipore AP 250 2200" (Registered Trade Mark) filter and the filter was washed with three 10 ml portions of cold water. The Charcoal and the filter were then radioactively counted.
The radioactive count from the contents of tubes 2 and 3 was taken as the maximum count, since these tubes contained no test compound and thus gave 0% enzyme inhibition. The percentage inhibition produced by the contents of the remaining tubes could then be calculated by relating their radioactive count to the maximum, as determined above.

Another assay has as its system coccidiosis. The assay is described as follows: potentiating effect against coccidiosis. In kind it is in vivo. To be noted: replacement of DMHP.

T1 sequence (P26281 whole entry): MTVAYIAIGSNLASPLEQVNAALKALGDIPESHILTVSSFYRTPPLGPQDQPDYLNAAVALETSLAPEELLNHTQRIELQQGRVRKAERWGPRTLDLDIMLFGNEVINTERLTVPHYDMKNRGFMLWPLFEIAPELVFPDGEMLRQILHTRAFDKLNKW

By IC50 is commonly meant the concentration that gives 50% inhibition. As for `CC1=Nc2c(O)nc(N)nc2NC1(C)C` [R=Me, R^1=Me, R^2=Me, 2-Amino-4-hydroxy-6-methyl-7,7-dimethyl-7,8-dihydropteridine], the IC50 in assay [1] amounted to 75 µM. Also, the “potentiating effect against coccidiosis” value in the assay with coccidiosis is given as “noticeable, athough less marked potentiating effect”.
